Assay: Plasma noribogaine glucuronide pharmacokinetics after noribogaine dosing, healthy volunteers
Type: in vivo, human
Conditions: for AUC0-216 / AUC0-∞ / Cmax / Tmax / t1/2: healthy male volunteers, mean (n = 6)
[1] = plasma glucuronide after single oral 30 mg noribogaine
[2] = plasma glucuronide after single oral 60 mg noribogaine

CC[C@H]1C[C@@H]2C[C@H]3c4[nH]c5ccc(OC6OC(C(=O)O)C(O)C(O)C6O)cc5c4CCN(C2)[C@@H]13 (some centres unmarked) [Noribogaine glucuronide]
Mean half-life of plasma noribogaine glucuronide (30 mg and 60 mg noribogaine dose groups): 21 to 23 h | proportion of noribogaine glucuronide Cmax and AUC relative to noribogaine (both dose groups (30 mg and 60 mg)): 3-4% | AUC0-216 [1]: 25.7 ng·h/mL | AUC0-∞ [1]: 25.8 ng·h/mL | Cmax [1]: 1.8 ng/mL | Tmax [1]: 3.0 h | t1/2 [1]: 20.6 h | AUC0-216 [2]: 65.0 ng·h/mL | AUC0-∞ [2]: 67.1 ng·h/mL | Cmax [2]: 4.1 ng/mL | Tmax [2]: 3.8 h | t1/2 [2]: 23.1 h | time of peak concentrations after noribogaine dosing (plasma glucuronide, 30 mg and 60 mg noribogaine dose groups): 3 to 4 h | time by which noribogaine glucuronide was detected in all subjects (plasma, 30 mg and 60 mg noribogaine dose groups): ≤ 0.75 h
